Reference: US20110053916A1 (Vertex Pharmaceuticals Incorporated, priority 2009, published 2011)

Biological target: T1, PknB (Mycobacterium tuberculosis, UniProt P9WI81)
T1 construct: made in house
Assay: biochemical
Parameters: species or system M. tuberculosis
Details: 3 nM PknB, 6 uM GarA, 3 μM ATP, 30 min; competitive tight-binding fit; several symbols in a cell = repeat determinations

T1 sequence (P9WI81 whole entry): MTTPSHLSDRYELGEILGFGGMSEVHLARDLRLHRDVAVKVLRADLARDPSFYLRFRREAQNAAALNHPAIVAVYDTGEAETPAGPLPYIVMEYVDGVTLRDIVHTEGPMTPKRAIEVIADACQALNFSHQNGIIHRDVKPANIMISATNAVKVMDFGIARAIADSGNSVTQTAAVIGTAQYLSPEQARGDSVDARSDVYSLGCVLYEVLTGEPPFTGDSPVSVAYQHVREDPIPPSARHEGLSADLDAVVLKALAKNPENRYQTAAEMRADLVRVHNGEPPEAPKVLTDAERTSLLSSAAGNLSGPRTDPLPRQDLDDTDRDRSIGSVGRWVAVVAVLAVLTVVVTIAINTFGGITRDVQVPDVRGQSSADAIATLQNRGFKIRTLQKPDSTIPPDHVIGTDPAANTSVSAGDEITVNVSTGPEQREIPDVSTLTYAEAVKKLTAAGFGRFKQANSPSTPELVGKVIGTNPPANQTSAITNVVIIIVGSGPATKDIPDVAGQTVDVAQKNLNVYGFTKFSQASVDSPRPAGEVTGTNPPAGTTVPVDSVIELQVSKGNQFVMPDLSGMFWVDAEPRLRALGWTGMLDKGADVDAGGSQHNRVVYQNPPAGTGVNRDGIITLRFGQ

Compound	Ki Values
C#Cc1cnc(-c2ccc([C@@H](O)CCC)s2)nc1Nc1cc(C2CC2)n[nH]1 (stereo in doubt) [Compound 211, 1-[5-[4-[(5-cyclopropyl-2H-pyrazol-3-yl)amino]-5-ethynyl-pyrimidin-2-yl]-2-thienyl]butan-1-ol]	A**, A*, A*
Nc1cnc(-c2ccccc2)nc1Nc1cc(C2CC2)[nH]n1 [Compound 5, N-(5-cyclopropyl-1H-pyrazol-3-yl)-2-phenylpyrimidine-4,5-diamine]	A*, A
CS(=O)(=O)c1ccc(-c2nccc(Nc3cc(C4CC4)[nH]n3)n2)cc1 [Compound 15, N-(5-cyclopropyl-1H-pyrazol-3-yl)-2-(4-(methylsulfonyl)phenyl)pyrimidin-4-amine]	A*, A
CS(=O)(=O)c1ccc(-c2ncc(F)c(Nc3cc(C4CC4)[nH]n3)n2)cc1 [Compound 16, N-(5-cyclopropyl-1H-pyrazol-3-yl)-5-fluoro-2-(4-methylsulfonylphenyl)-pyrimidin-4-amine]	A*, A
CS(=O)(=O)c1ccc(-c2ncc(Cl)c(Nc3cc(C4CC4)[nH]n3)n2)cc1 [Compound 23, 5-chloro-N-(5-cyclopropyl-1H-pyrazol-3-yl)-2-(4-methylsulfonylphenyl)-pyrimidin-4-amine]	A, B**
Cc1cnc(-c2cccs2)nc1Nc1cc(C2CC2)[nH]n1 [Compound 38, N-(5-cyclopropyl-1H-pyrazol-3-yl)-5-methyl-2-(thiophen-2-yl)pyrimidin-4-amine]	A*, A
CCc1cnc(N2CCC(N3CCCCC3)CC2)nc1Nc1cc(C2CC2)[nH]n1 [Compound 44, N-(5-cyclopropyl-1H-pyrazol-3-yl)-5-ethyl-2-[4-(1-piperidyl)-1-piperidyl]-pyrimidin-4-amine]	C, D
CCc1cnc(N2CCCCC2)nc1Nc1cc(C2CC2)[nH]n1 [Compound 45, N-(5-cyclopropyl-1H-pyrazol-3-yl)-5-ethyl-2-(1-piperidyl)pyrimidin-4-amine]	C, D

Same assay, conditions: 3 nM PknB, 6 uM GarA, 3 μM ATP, 30 min; competitive tight-binding fit; several symbols in a cell = repeat determinations; read-out: Ki Values

Compound	Ki
C[C@@H]1C[C@H]1c1cc(Nc2nc(-c3ccc(S(N)(=O)=O)s3)ncc2Cl)n[nH]1 (relative stereo) [Compound 320, 5-(5-chloro-4-(5-(trans-2-methylcyclopropyl)-1H-pyrazol-3-ylamino)pyrimidin-2-yl)thiophene-2-sulfonamide]	1 to 10 nM
C#Cc1cnc(N2CC[C@H](NC(C)=O)C2)nc1Nc1cc(C2CC2)n[nH]1 (stereo in doubt) [Compound 195, N-[1-[4-[(5-cyclopropyl-2H-pyrazol-3-yl)amino]-5-ethynyl-pyrimidin-2-yl]pyrrolidin-3-yl]acetamide]	2000 to 4000 nM
C#Cc1cnc(-c2ccc([C@@H](O)C(C)C)s2)nc1Nc1cc(C2CC2)n[nH]1 (stereo in doubt) [Compound 210, 1-[5-[4-[(5-cyclopropyl-2H-pyrazol-3-yl)amino]-5-ethynyl-pyrimidin-2-yl]-2-thienyl]-2-methyl-propan-1-ol]	10 to 50 nM
c1ccc(-c2nccc(Nc3cc(C4CC4)n[nH]3)n2)cc1 [Compound 2, N-(5-cyclopropyl-2H-pyrazol-3-yl)-2-phenyl-pyrimidin-4-amine]	50 to 100 nM
CC(=O)Nc1cnc(-c2ccccc2)nc1Nc1cc(C2CC2)n(C(C)=O)n1 [Compound 3, N-[4-[(1-acetyl-5-cyclopropyl-pyrazol-3-yl)amino]-2-phenyl-pyrimidin-5-yl]acetamide]	> 4000 nM
CC(=O)n1nc(Nc2nc(-c3ccccc3)ncc2N)cc1C1CC1 [Compound 4, 1-[3-[(5-amino-2-phenyl-pyrimidin-4-yl)amino]-5-cyclopropyl-pyrazol-1-yl]ethanone]	100 to 500 nM
O=[N+]([O-])c1cnc(-c2ccccc2)nc1Nc1cc(C2CC2)[nH]n1 [Compound 6, N-(5-cyclopropyl-1H-pyrazol-3-yl)-5-nitro-2-phenylpyrimidin-4-amine]	> 4000 nM
Brc1c(C2CC2)n[nH]c1Nc1ccnc(-c2ccccc2)n1 [Compound 7, N-(4-bromo-5-cyclopropyl-2H-pyrazol-3-yl)-2-phenyl-pyrimidin-4-amine]	> 4000 nM
Brc1cnc(-c2ccccc2)nc1Nc1cc(C2CC2)n[nH]1 [Compound 8, 5-Bromo-N-(5-cyclopropyl-1H-pyrazol-3-yl)-2-phenylpyrimidin-4-amine]	100 to 500 nM
CC#Cc1cnc(-c2ccccc2)nc1Nc1cc(C2CC2)n[nH]1 [Compound 9, N-(5-cyclopropyl-1H-pyrazol-3-yl)-2-phenyl-5-(prop-1-ynyl)pyrimidin-4-amine]	> 4000 nM
CC(=O)Nc1cnc(-c2ccccc2)nc1Nc1cc(C2CC2)[nH]n1 [Compound 10, N-(4-(5-cyclopropyl-1H-pyrazol-3-ylamino)-2-phenylpyrimidin-5-yl)acetamide]	1000 to 2000 nM
C/C=C/c1cnc(-c2ccccc2)nc1Nc1cc(C2CC2)[nH]n1 [Compound 11, (E)-N-(5-cyclopropyl-1H-pyrazol-3-yl)-2-phenyl-5-(prop-1-enyl)pyrimidin-4-amine]	100 to 500 nM
c1cc(Nc2cc(C3CC3)[nH]n2)nc(Nc2ccc3[nH]ncc3c2)n1 [Compound 13, N4-(5-cyclopropyl-1H-pyrazol-3-yl)-N2-(1H-indazol-5-yl)pyrimidine-2,4-diamine]	10 to 50 nM
N#CCc1ccc(-c2nccc(Nc3cc(C4CC4)[nH]n3)n2)cc1 [Compound 17, 2-(4-(4-(5-cyclopropyl-1H-pyrazol-3-ylamino)pyrimidin-2-yl)phenyl)acetonitrile]	10 to 50 nM
Cc1cnc(-c2ccc(S(C)(=O)=O)cc2)nc1Nc1cc(C2CC2)[nH]n1 [Compound 20, N-(5-cyclopropyl-1H-pyrazol-3-yl)-5-methyl-2-(4-(methylsulfonyl)phenyl)pyrimidin-4-amine]	100 to 500 nM
OCc1ccc(-c2nccc(Nc3cc(C4CC4)[nH]n3)n2)s1 [Compound 22, (5-(4-(5-cyclopropyl-1H-pyrazol-3-ylamino)pyrimidin-2-yl)thiophen-2-yl)methanol]	10 to 50 nM
Cc1cnc(-c2ccc(CC#N)cc2)nc1Nc1cc(C2CC2)[nH]n1 [Compound 24, 2-(4-(4-(5-cyclopropyl-1H-pyrazol-3-ylamino)-5-methylpyrimidin-2-yl)phenyl)acetonitrile]	10 to 50 nM

Compound	Ki
c1csc(-c2nccc(Nc3cc(C4CC4)[nH]n3)n2)c1 [Compound 27, N-(5-cyclopropyl-1H-pyrazol-3-yl)-2-(thiophen-2-yl)pyrimidin-4-amine]	10 to 50 nM
NS(=O)(=O)c1cccc(-c2nccc(Nc3cc(C4CC4)[nH]n3)n2)c1 [Compound 28, 3-[4-[(5-cyclopropyl-1H-pyrazol-3-yl)amino]pyrimidin-2-yl]benzenesulfonamide]	10 to 50 nM
Clc1cnc(-c2cccs2)nc1Nc1cc(C2CC2)[nH]n1 [Compound 29, 5-chloro-N-(5-cyclopropyl-1H-pyrazol-3-yl)-2-(thiophen-2-yl)pyrimidin-4-amine]	50 to 100 nM
NS(=O)(=O)c1cccc(-c2ncc(Cl)c(Nc3cc(C4CC4)[nH]n3)n2)c1 [Compound 30, 3-[5-chloro-4-[(5-cyclopropyl-1H-pyrazol-3-yl)amino]-pyrimidin-2-yl]benzenesulfonamide]	10 to 50 nM
Cc1cnc(-c2cccc(S(N)(=O)=O)c2)nc1Nc1cc(C2CC2)[nH]n1 [Compound 31, 3-[4-[(5-cyclopropyl-1H-pyrazol-3-yl)amino]-5-methyl-pyrimidin-2-yl]benzenesulfonamide]	10 to 50 nM
NC(=O)c1cc(-c2ncc(F)c(Nc3cc(C4CC4)[nH]n3)n2)ccc1Cl [Compound 34, 2-chloro-5-[4-[(5-cyclopropyl-1H-pyrazol-3-yl)amino]-5-fluoro-pyrimidin-2-yl]-benzamide]	10 to 50 nM
NS(=O)(=O)c1cccc(-c2ncc(F)c(Nc3cc(C4CC4)[nH]n3)n2)c1 [Compound 35, 3-[4-[(5-cyclopropyl-1H-pyrazol-3-yl)amino]-5-fluoro-pyrimidin-2-yl]benzenesulfonamide]	10 to 50 nM
COC/C=C/c1cnc(-c2ccccc2)nc1Nc1cc(C2CC2)[nH]n1 [Compound 39, (E)-N-(5-cyclopropyl-1H-pyrazol-3-yl)-5-(3-methoxyprop-1-enyl)-2-phenylpyrimidin-4-amine]	500 to 1000 nM
Cc1cnc(-c2ccc(S(N)(=O)=O)s2)nc1Nc1cc(C2CC2)[nH]n1 [Compound 40, 5-(4-(5-cyclopropyl-1H-pyrazol-3-ylamino)-5-methylpyrimidin-2-yl)thiophene-2-sulfonamide]	1 to 10 nM
NS(=O)(=O)c1ccc(-c2ncc(Cl)c(Nc3cc(C4CC4)[nH]n3)n2)s1 [Compound 42, 5-(5-chloro-4-(5-cyclopropyl-1H-pyrazol-3-ylamino)pyrimidin-2-yl)thiophene-2-sulfonamide]	1 to 10 nM
CCc1cnc(N2CCN(C)CC2)nc1Nc1cc(C2CC2)[nH]n1 [Compound 46, N-(5-cyclopropyl-1H-pyrazol-3-yl)-5-ethyl-2-(4-methylpiperazin-1-yl)-pyrimidin-4-amine]	> 4000 nM
CN1CCN(c2nccc(Nc3cc(C4CC4)[nH]n3)n2)CC1 [Compound 47, N-(5-cyclopropyl-1H-pyrazol-3-yl)-2-(4-methylpiperazin-1-yl)-pyrimidin-4-amine]	> 4000 nM
CNS(=O)(=O)c1ccc(-c2nccc(Nc3cc(C4CC4)[nH]n3)n2)s1 [Compound 48]	1 to 10 nM
COC(=O)CC1c2cnc(-c3ccccc3)nc2Nc2cc(C3CC3)nn21 (stereo not drawn) [Compound 49, methyl 2-(cyclopropyl-phenyl-BLAHyl)acetate]	> 4000 nM
NS(=O)(=O)c1ccc(-c2nccc(Nc3cc(C4CC4)[nH]n3)n2)s1 [Compound 50, 5-(4-(5-cyclopropyl-1H-pyrazol-3-ylamino)pyrimidin-2-yl)thiophene-2-sulfonamide]	1 to 10 nM
NS(=O)(=O)c1ccc(-c2ncc(F)c(Nc3cc(C4CC4)[nH]n3)n2)s1 [Compound 52, 5-(4-(5-cyclopropyl-1H-pyrazol-3-ylamino)-5-fluoropyrimidin-2-yl)thiophene-2-sulfonamide]	1 to 10 nM
NS(=O)(=O)C/C=C/c1nccc(Nc2cc(C3CC3)[nH]n2)n1 [Compound 54, 3-[4-[(5-cyclopropyl-1H-pyrazol-3-yl)amino]pyrimidin-2-yl]prop-2-ene-1-sulfonamide]	1000 to 2000 nM
